Source: patent US7883715B2, “Pesticide compositions containing dicarboxylic acids” (Monsanto Technology LLC, priority 2002, dated 2011)
Read-outs that look alike come from different tables or passages of the source.

How the values were obtained:
ABUTH = test: Greenhouse herbicidal effectiveness, ABUTH; assay type: in vivo, velvetleaf; details: for % inhibition ABUTH (14 DAT) / % inhibition ABUTH (20 DAT): oxalate/oxalic acid alone, Table 44A; for inhibition at 75 g/ha / inhibition at 100 g/ha / inhibition at 150 g/ha / inhibition at 200 g/ha: Abutilon theophrasti, 408 h, read-out: % inhibition ABUTH, Table 19B, 17 days after treatment; for inhibition at 75 g/ha: 75 g a.e./ha; for inhibition at 100 g/ha: 100 g a.e./ha; for inhibition at 150 g/ha: 150 g a.e./ha; for inhibition at 200 g/ha: 200 g a.e./ha
From the text: (§1) The following greenhouse testing procedure was used for evaluating compositions of the Examples to determine herbicidal effectiveness, except where otherwise indicated.
(§2) Seeds of the plant species indicated were planted in 88 mm square pots in a soil mix which was previously sterilized and prefertilized with a 14-14-14 NPK slow release fertilizer at a rate of 3.6 kg/m3. The pots were placed in a greenhouse with sub-irrigation. About one week after emergence, seedlings were thinned as needed, including removal of any unhealthy or abnormal plants, to create a uniform series of test pots.
(§3) The plants were maintained for the duration of the test in the greenhouse where they received a minimum of 14 hours of light per day. […] Exposure temperatures were not precisely controlled but averaged about 29° C. during the day and about 21° C. during the night. Plants were sub-irrigated throughout the test to ensure adequate soil moisture levels.
(§4) Pots were assigned to different treatments in a fully randomized experimental design with 6 replications. A set of pots was left untreated as a reference against which affects of the treatments could later be evaluated.
(§5) Application of glyphosate compositions was made by spraying with a track sprayer fitted with a 9501E nozzle calibrated to deliver a spray volume of 93 liters per hectare (l/ha) at a pressure of 165 kilopascals (kPa). After treatment, pots were returned to the greenhouse until ready for evaluation.
(§6) Treatments were made using dilute aqueous compositions. These could be prepared as spray compositions directly from their ingredients, or by dilution with water of preformulated concentrate compositions.
(§7) For evaluation of herbicidal effectiveness, all plants in the test were examined by a single practiced technician, who recorded percent control, a visual measurement of the effectiveness of each treatment by comparison with untreated plants. […] The reported % control values represent the average for all replicates of each treatment.

ECHCF = test: Greenhouse herbicidal effectiveness, ECHCF; assay type: in vivo, Japanese millet, barnyardgrass; details: 408 h, read-out: % inhibition ECHCF, Table 19B, 17 days after treatment; for inhibition at 75 g/ha: 75 g a.e./ha; for inhibition at 100 g/ha: 100 g a.e./ha; for inhibition at 150 g/ha: 150 g a.e./ha; for inhibition at 200 g/ha: 200 g a.e./ha
From the text: as §1, §2, §3, §4, §5, §6, §7

SMILES	inhibition at 75 g/ha (ECHCF; OTH1 1 % v/v)	inhibition at 75 g/ha (ECHCF; no OTH22, no OTH1)	inhibition at 100 g/ha (ECHCF; OTH1 1 % v/v)	inhibition at 100 g/ha (ECHCF; no OTH22, no OTH1)	inhibition at 150 g/ha (ECHCF; OTH1 1 % v/v)	inhibition at 150 g/ha (ECHCF; no OTH22, no OTH1)	inhibition at 200 g/ha (ECHCF; OTH1 1 % v/v)	inhibition at 200 g/ha (ECHCF; no OTH22, no OTH1)	inhibition at 75 g/ha (ABUTH; OTH1 1 % v/v)	inhibition at 75 g/ha (ABUTH; no OTH22, no OTH1)	inhibition at 100 g/ha (ABUTH; OTH1 1 % v/v)	inhibition at 100 g/ha (ABUTH; no OTH22, no OTH1)	inhibition at 150 g/ha (ABUTH; OTH1 1 % v/v)	inhibition at 150 g/ha (ABUTH; no OTH22, no OTH1)	inhibition at 200 g/ha (ABUTH; OTH1 1 % v/v)	inhibition at 200 g/ha (ABUTH; no OTH22, no OTH1)	other results
N.N.O=C(O)C(=O)O [OTH1]	–	–	–	–	–	–	–	–	–	–	–	–	–	–	–	–	% inhibition ABUTH (14 DAT) (ABUTH; 2 g a.e./ha): 0, 0, 0, 0%; % inhibition ABUTH (20 DAT) (ABUTH; 2 g a.e./ha): 0, 0, 0, 0%; % inhibition ABUTH (14 DAT) (ABUTH; 3 g a.e./ha): 0, 0, 0, 0%; % inhibition ABUTH (20 DAT) (ABUTH; 3 g a.e./ha): 0, 0, 0, 0%; % inhibition ABUTH (14 DAT) (ABUTH; 4 g a.e./ha): 0, 0, 0, 0%; % inhibition ABUTH (20 DAT) (ABUTH; 4 g a.e./ha): 0, 0, 0, 0%; % inhibition ABUTH (14 DAT) (ABUTH; 5 g a.e./ha): 0, 0, 0, 0%; % inhibition ABUTH (20 DAT) (ABUTH; 5 g a.e./ha): 0, 0, 0, 0%
CP(=O)(O)CCC(N)C(=O)O (stereo not shown) [glufosinate]	95%	94%	96%	95%	99%	98%	100%	99%	68%	22%	82%	43%	90%	74%	98%	89%	–
CN(C)C(=O)Nc1ccc(Cl)c(Cl)c1 [diuron]	0%	0%	0%	0%	0%	0%	0%	0%	0%	0%	0%	0%	2%	5%	10%	17%	–
